According to patent US20020032328A1, “Heterocyclic acylsulfimides, processes for their preparation, compositions comprising them and their use as pesticides” (priority 2000, published 2002):

How the values were obtained:
[1] = tested on: black bean aphids (Aphis fabae); experiment: Aphis fabae dip test on field bean (plants and aphids dipped in preparation); format: in vivo; conditions: read-out: mortality among the aphids
[2] = tested on: black bean aphids (Aphis fabae); experiment: Aphis fabae root-systemic test on field bean; format: in vivo; conditions: read-out: mortality among the aphids, by root-systemic action

Structure (SMILES)	mortality at 300 ppm [1] [%]	mortality at 30 ppm [2] [%]
C/S(=N\C(=O)c1cnccc1C(F)(F)F)c1ccsc1 (stereo not shown) [Example 66]	90 to 100	90 to 100
CS(=O)(=NC(=O)c1cnccc1C(F)(F)F)c1ccc(Oc2cccc(F)c2C#N)cc1 (stereo not shown) [Example 718]	90 to 100	90 to 100
